Experimental findings from patent US11559527B2 (priority 2017, dated 2023) are described below.

Data set [1] is described as follows: PrestoBlue viability assay. Format: cell-based, Human. The conditions noted are these: human, MCF7 breast cancer cells, read-out: reduction of MCF7 cell viability. The method, then:
(§1) The inventors sought to evaluate whether mDIVI-1-induced inhibition of DRP1 has repercussion on the viability of MCF7 cells. […] Similar results were obtained using the Bradford assay, which measures protein content, as an indicator of cell viability.
(§2) CELL CULTURE: Human MCF7 breast cancer cells were purchased from ATCC and maintained in complete media: DMEM (D6546, Sigma) supplemented with 10% fetal bovine serum (F7524, Sigma), 100 units/ml of penicillin, 100 μg/ml, streptomycin (P0781, Sigma) and 1% Glutamax (#35050087, Life Technologies). For all experiments, cells were incubated in a 5% CO2 atmosphere at 37° C.
(§3) PRESTOBLUE VIABILITY ASSAY: Cell viability was measured using the resazurin-based PrestoBlue reagent (A-13261, ThermoFisher Scientific). Briefly, 5×10^3 MCF7 cells were seeded into 96-well black plates. When cells were attached mDIVI-1 or vehicle were added to the cells. After 2 or 5 days, PrestoBlue reagent was added to the cells and incubated for 2 hours. Plates were finally read using a FluoStar Omega plate reader (BMG Labtech) at an excitation wavelength of 544 and an emission wavelength of 590 nm. Background measurements were subtracted from all values.

The test system of data set [2] is MCF7 cells. As to the kind of experiment: PrestoBlue viability assay. Format: cell-based, Human. Conditions: 10 μM, 48 hours. The method, then: as §1, §2, §3
For data set [3], the system named is MCF7 cells. As to the kind of experiment: Label-free quantitative proteomics. Format: cell-based, Human. Conditions: MCF7, 10 μM. The text has this: Following protein digestion with trypsin, peptide fractions were processed on an LTQ-Orbitrap XL mass spectrometer. Those peptides identified were further analyzed to find proteomic changes between mDIVI-1-treated and vehicle-treated MCF7 cells, as described before. […] First, the inventors searched the proteomics datasets for changes in proteins involved in metabolism. […] That may possibly translate into a loss of antioxidant power, as the pentose phosphate pathway is a major source of NADPH.
LABEL-FREE SEMI-QUANTITATIVE PROTEOMICS: Chemicals and sample preparation. Formic acid, trifluoroacetic acid, ammonium formate (10 M), ammonium bicarbonate TCEP (Tris (2-carboxyethyl)phosphine hydrochloride), MMTS (Methyl methanethiosulfonate) and trypsin were all obtained from Sigma. HPLC gradient grade acetonitrile was obtained from Fisher Scientific. Briefly, 2×10^6 MCF7 cells were seeded in 15 cm plates until cells were attached. […] As control, vehicle-treated cells were processed in parallel. After 48 hours of treatment, cells were lysed in RIPA buffer (R0278, Sigma) and kept at 4° C. for 20 minutes with rotation. Lysates were cleared by centrifugation for 10 minutes at 10,000×g and supernatants were collected and kept frozen at −80° C.
PROTEIN DIGESTION: Lysate samples were thawed to room temperature and their concentrations equalized to 1 μg/μL (50 μL volume) with RIPA buffer, and further processed for trypsin digestion by sequential reduction of disulphide bonds with TCEP and alkylation with MMTS. Briefly, 1 μL benzonase (Novagen) was added to the 50 μL aliquot and placed on ice for 15 minutes. The sample was then taken to dryness using a SpeedVac, and resuspended in 22.5 μL trypsin reaction buffer (40 mM ammonium bicarbonate and 9% acetonitrile). One μL of 50 mM TCEP solution was added to each sample, mixed briefly and placed on a heater block at 60° C. for 60 minutes. After cooling to room temperature, 0.5 μL of 200 mM MMTS solution was added to each sample and allowed to react for 15 minutes. Trypsin was added in two waves to ensure efficient digestion of the sample. Firstly, 20 μg of sequencing grade trypsin was resuspended in 1800 μL of trypsin reaction buffer; 225 μL of this solution were added to each sample for digestion, and the reactions were left at 37° C. overnight with shaking (600 rpm). The following morning, a further aliquot of trypsin was added. Two ml of trypsin reaction buffer was added to 20 μL of sequencing grade trypsin; 250 μL of this solution were added to each of the digest samples from overnight, and the reactions were left at 37° C. for 4 hours with shaking (600 rpm). Thirty-five μL 10% formic acid were added to the 500 μL digest sample (0.7% final concentration of formic acid) to stop the digestion. The digested solution was diluted in 7.5 mL of acetonitrile containing 0.3% formic acid.
HILIC solid phase extraction (SPE) of peptides. PolyhydroxyethylA SPE 12 μm, 300 A, 300 mg cartridges (obtained from PolyLC) were used for the HILIC procedure. Prior to use, cartridges required an overnight soak in 50 mM formic acid followed by rinsing with water the following day. Cartridges were preconditioned with 2 mL of Buffer A (90% acetonitrile, 5 mM ammonium formate, pH 2.7) followed by 2 mL of Buffer B (5 mM ammonium formate, pH 2.7) and finally re-equilibrated with 10 mL Buffer A. The diluted samples were loaded onto the cartridges and washed with a further 10 mL Buffer A. Finally, peptides were eluted in 1 mL Buffer C (9 parts Buffer B plus 1 part Buffer A) and the samples dried on a Speedvac to remove organic solvent prior to LC-MS/MS analysis.
LC-MS/MS analysis. Lyophilised digests were resuspended in 50 μL of 0.1% TFA to give an approximate concentration of 1 μg/μL. One μL injection volumes were used throughout resulting in an on-column peptide loading of approximately 1 μg per injection. Analysis was performed in quintuplicate for each sample. […]

The subject of another data set is A549 lung cancer cells. As to the kind of experiment: Tumorsphere formation assay, A549. The format is cell-based. On the procedure:
One of the gold standard techniques for the study and identification of CSCs is the sphere formation assay, an in vitro culture system that enriches for CSCs. Under these anchorage-independent culture conditions, CSCs preferentially form the so-called tumorspheres, whereas more differentiated cells die rapidly.
TUMORSPHERE FORMATION ASSAY: A single cell suspension was prepared using enzymatic (1× Trypsin-EDTA, T3924, Sigma Aldrich), and manual disaggregation (25 gauge needle). […] After 5 days of culture in a humidified incubator at 37° C., tumorspheres bigger than 50 μm were counted using an eye piece graticule.

With `COc1cc(-n2c(S)nc3ccccc3c2=O)c(Cl)cc1Cl` [mDIVI-1, 3-(2,4-Dichloro-5-methoxyphenyl)-2-sulfanyl-4(3H)-quinazolinone], the cytotoxicity at 5 days, 10 μM in data set [1] (10 μM, five days) is 20%. The cytotoxicity at 48 h, 50 μM in data set [1] (50 μM, 48 hours) is 20%. In addition, the cytotoxicity at 5 days, 50 μM in data set [1] (50 μM, five days) is greater than 65%. For the same compound, the cytotoxicity at 48 h, 100 μM in data set [1] (100 μM, 48 hours) was found to be 20%. For the same compound, in data set [1] (100 μM, five days), the cytotoxicity at 5 days, 100 μM was determined as 85%. For the same compound, in the data set with MCF7 cells [2], the “viability of MCF7 cells” value was “did not decrease”. The “Change in expression: Hexokinase 1 (HK1)” value with MCF7 cells [3] (Glycolysis, 48 hours) was “↓Infinite”. Moreover, in the data set on MCF7 cells [3] (48 hours vs vehicle), the “BMP7 expression change (proteomics)” value was −47.17, the “CELSR2 expression change (proteomics)” value is given as −1.6, the “EPCAM expression change (proteomics)” value is given as −1.58 and the “EphA2 expression change (proteomics)” value is −1.74. For the same compound, in the data set with MCF7 cells [3] (48 hours vs vehicle), the “F11 receptor expression change (proteomics)” value is given as −1.70; the “LAMP1 expression change, upregulated (proteomics)” value is reported as 2.83; the “STAT3 expression change (proteomics)” value is recorded as −1.83; the “ZO-1 expression change (proteomics)” value was −1.62. Moreover, in the data set on MCF7 cells [3] (48 hours vs vehicle), the “collagen type IV upregulation (proteomics)” value is 1.9 fold, the “desmoplakin expression change (proteomics)” value is given as −4.58, the “junction plakoglobin expression change (proteomics)” value is reported as −1.65 and the “keratin 8 expression change (proteomics)” value is −5.24. Moreover, the “keratin 18 expression change (proteomics)” value with MCF7 cells [3] (48 hours vs vehicle) is −12.21. Besides, the “decrease of tumorsphere forming capacity” value in the data set on A549 lung cancer cells (A549, 10 μM) is greater than 15%. Besides, in the data set with A549 lung cancer cells (A549, 50 μM), the “decrease of tumorsphere forming capacity” value is recorded as greater than 80%.
